Experimental findings from PubChem BioAssay AID1259407 (Chemical Carcinogenesis Research Information System (CCRIS), 2018) are described below.

Calls of active or inactive are those of the source. How the calls were made is not given here.

This data set has as its system CCRIS mutagenicity, Ames/micronucleus/aberration tests. Nature of the data set: CCRIS mutagenicity studies.
[1] abbreviates: Test System: AMES SALMONELLA TYPHIMURIUM, Strain/Indicator: TA98, Metabolic Activation: NONE, Method: STANDARD PLATE.
Where [2] appears, read: Test System: AMES SALMONELLA TYPHIMURIUM, Strain/Indicator: TA100, Metabolic Activation: NONE, Method: STANDARD PLATE.

On to `Nc1ccccn1`, for which the mutagenic call (Test System: AMES SALMONELLA TYPHIMURIUM, Strain/Indicator: TA98, Metabolic Activation: HAMSTER, LIVER, S-9, AROCLOR 1254 (10%), Method: PREINCUBATION) is “inactive; negative”; the mutagenic call (Test System: AMES SALMONELLA TYPHIMURIUM, Strain/Indicator: TA98, Metabolic Activation: NONE, Method: PREINCUBATION) was “inactive; negative”; the mutagenic call (Test System: AMES SALMONELLA TYPHIMURIUM, Strain/Indicator: TA98, Metabolic Activation: RAT, LIVER, S-9, AROCLOR 1254 (10%), Method: PREINCUBATION) was “inactive; negative”; the mutagenic call (Test System: AMES SALMONELLA TYPHIMURIUM, Strain/Indicator: TA100, Metabolic Activation: HAMSTER, LIVER, S-9, AROCLOR 1254 (10%), Method: PREINCUBATION) was “inactive; negative”; the mutagenic call (Test System: AMES SALMONELLA TYPHIMURIUM, Strain/Indicator: TA100, Metabolic Activation: NONE, Method: PREINCUBATION) was “inactive; negative”; the mutagenic call (Test System: AMES SALMONELLA TYPHIMURIUM, Strain/Indicator: TA100, Metabolic Activation: RAT, LIVER, S-9, AROCLOR 1254 (10%), Method: PREINCUBATION) is “inactive; negative”. Further, the mutagenic call is “inactive; negative” (Test System: AMES SALMONELLA TYPHIMURIUM, Strain/Indicator: TA1535, Metabolic Activation: HAMSTER, LIVER, S-9, AROCLOR 1254 (10%), Method: PREINCUBATION); “inactive; negative” (Test System: AMES SALMONELLA TYPHIMURIUM, Strain/Indicator: TA1535, Metabolic Activation: NONE, Method: PREINCUBATION); “inactive; negative” (Test System: AMES SALMONELLA TYPHIMURIUM, Strain/Indicator: TA1535, Metabolic Activation: RAT, LIVER, S-9, AROCLOR 1254 (10%), Method: PREINCUBATION); “inactive; negative” (Test System: AMES SALMONELLA TYPHIMURIUM, Strain/Indicator: TA1537, Metabolic Activation: HAMSTER, LIVER, S-9, AROCLOR 1254 (10%), Method: PREINCUBATION); “inactive; negative” (Test System: AMES SALMONELLA TYPHIMURIUM, Strain/Indicator: TA1537, Metabolic Activation: NONE, Method: PREINCUBATION); “inactive; negative” (Test System: AMES SALMONELLA TYPHIMURIUM, Strain/Indicator: TA1537, Metabolic Activation: RAT, LIVER, S-9, AROCLOR 1254 (10%), Method: PREINCUBATION).
With `Nc1c(N=Nc2ccc(-c3ccc(N=Nc4cc(S(=O)(=O)O)c5ccccc5c4N)cc3)cc2)cc(S(=O)(=O)O)c2ccccc12`, the mutagenic call was “active; positive” (Test System: AMES SALMONELLA TYPHIMURIUM, Strain/Indicator: TA98, Metabolic Activation: HAMSTER, LIVER, S-9, Method: PREINCUBATION (PRIVAL METHOD)); “inactive; negative” under setting [1]; “inactive; negative” (Test System: AMES SALMONELLA TYPHIMURIUM, Strain/Indicator: TA98, Metabolic Activation: RAT, LIVER, S-9, PHENOBARBITAL, Method: STANDARD PLATE); “active; positive” under setting [2]; “inactive; negative” (Test System: AMES SALMONELLA TYPHIMURIUM, Strain/Indicator: TA100, Metabolic Activation: RAT, LIVER, S-9, PHENOBARBITAL, Method: STANDARD PLATE); “inactive; negative” (Test System: AMES SALMONELLA TYPHIMURIUM, Strain/Indicator: TA1538, Metabolic Activation: HAMSTER, LIVER, S-9, Method: STANDARD PLATE). The mutagenic call was “inactive; negative” (Test System: AMES SALMONELLA TYPHIMURIUM, Strain/Indicator: TA1538, Metabolic Activation: RAT, LIVER, S-9, AROCLOR 1254, Method: STANDARD PLATE); “inactive; negative, test conducted under both aerobic and anaerobic conditions” (Test System: Ames Salmonella typhimurium, Strain/Indicator: TA98, Metabolic Activation: Rat, Liver, S-9, Sodium phenobarbitone, Method: Preincubation); “inactive; negative, test conducted under both aerobic and anaerobic conditions” (Test System: Ames Salmonella typhimurium, Strain/Indicator: TA1538, Metabolic Activation: Rat, Liver, S-9, Sodium phenobarbitone, Method: Preincubation).
For `c1ccc2c3c4c(cc5ccccc5c4cc2c1)C1=C3CCCC1`, the mutagenic call (Test System: AMES SALMONELLA TYPHIMURIUM, Strain/Indicator: TA100, Metabolic Activation: RAT, LIVER, S-9, 3-METHYLCHOLANTHRENE, Method: STANDARD PLATE) was “active; positive”.
Take `S=C=NCCc1ccccc1`: the mutagenic call is, setting by setting: under setting [1], “inactive; negative”; (Test System: AMES SALMONELLA TYPHIMURIUM, Strain/Indicator: TA98, Metabolic Activation: RAT LIVER S-9, AROCLOR 1254, Method: STANDARD PLATE) “active; positive”; under setting [2], “inactive; negative”; (Test System: AMES SALMONELLA TYPHIMURIUM, Strain/Indicator: TA100, Metabolic Activation: RAT LIVER S-9, AROCLOR 1254, Method: STANDARD PLATE) “inactive; negative”.
Turning to `CCCCON(OC(C)=O)C(=O)c1ccc(C(C)(C)C)cc1`, the mutagenic call is, setting by setting: under setting [2], “active; positive”; (Test System: AMES SALMONELLA TYPHIMURIUM, Strain/Indicator: TA100, Metabolic Activation: RAT, S-9, AROCLOR, Method: STANDARD PLATE) “active; positive”.
As for `CC[C@H](C)[C@H]1O[C@]2(C=C[C@@H]1C)C[C@@H]1C[C@@H](C/C=C(\C)[C@@H](O[C@H]3C[C@H](OC)[C@@H](O[C@H]4C[C@H](OC)[C@@H](NC)[C@H](C)O4)[C@H](C)O3)[C@@H](C)/C=C/C=C3\CO[C@@H]4[C@H](O)C(C)=C[C@@H](C(=O)O1)[C@]34O)O2`, the mutagenic call is, setting by setting: (End Point: Ames Salmonella typhimurium, Test System: TA97a, Metabolic Activation: None) “inactive; negative”; (End Point: Ames Salmonella typhimurium, Test System: TA97a, Metabolic Activation: S-9) “inactive; negative”; (End Point: Ames Salmonella typhimurium, Test System: TA98, Metabolic Activation: None) “inactive; negative”; (End Point: Ames Salmonella typhimurium, Test System: TA98, Metabolic Activation: S-9) “inactive; negative”; (End Point: Ames Salmonella typhimurium, Test System: TA100, Metabolic Activation: None) “inactive; negative”; (End Point: Ames Salmonella typhimurium, Test System: TA100, Metabolic Activation: S-9) “inactive; negative”. Further, the mutagenic call by setting is: (End Point: Ames Salmonella typhimurium, Test System: TA1535, Metabolic Activation: None) “inactive; negative”; (End Point: Ames Salmonella typhimurium, Test System: TA1535, Metabolic Activation: S-9) “inactive; negative”; (End Point: E. coli, Test System: WP2, Metabolic Activation: None) “inactive; negative”; (End Point: E. coli, Test System: WP2, Metabolic Activation: S-9) “inactive; negative”; (End Point: E. coli, Test System: WP2uvrA pKM101, Metabolic Activation: None) “inactive; negative”; (End Point: E. coli, Test System: WP2uvrA pKM101, Metabolic Activation: S-9) “inactive; negative”. The mutagenic call by setting is: (End Point: E. coli, Test System: WP2uvrA, Metabolic Activation: None) “inactive; negative”; (End Point: E. coli, Test System: WP2uvrA, Metabolic Activation: S-9) “inactive; negative”; (End Point: Gene mutation, Test System: Chinese hamster V79 lung fibroblasts, Metabolic Activation: None) “inactive; negative”; (End Point: Gene mutation, Test System: Chinese hamster V79 lung fibroblasts, Metabolic Activation: S-9) “inactive; negative”; (End Point: In vitro chromosomal aberrations, Test System: Chinese hamster ovary (CHO-WBL) cells, Metabolic Activation: None) “inactive; negative”; (End Point: In vitro chromosomal aberrations, Test System: Chinese hamster ovary (CHO-WBL) cells, Metabolic Activation: S-9) “inactive; negative”. Further, the mutagenic call (End Point: In vivo chromosomal aberrations, Test System: Bone marrow cells, Species: Mouse, Route: Oral) was “inactive; negative”.
On to `CCCCCCC(=O)OCC`, for which the mutagenic call reads like this: (Test System: AMES SALMONELLA TYPHIMURIUM, Strain/Indicator: TA97, Metabolic Activation: NONE, Method: PREINCUBATION) “inactive; negative”; (Test System: AMES SALMONELLA TYPHIMURIUM, Strain/Indicator: TA97, Metabolic Activation: RAT, LIVER, S-9, AROCLOR 1254, Method: PREINCUBATION) “inactive; negative”; (Test System: AMES SALMONELLA TYPHIMURIUM, Strain/Indicator: TA102, Metabolic Activation: NONE, Method: PREINCUBATION) “inactive; negative”; (Test System: AMES SALMONELLA TYPHIMURIUM, Strain/Indicator: TA102, Metabolic Activation: RAT, LIVER, S-9, AROCLOR 1254, Method: PREINCUBATION) “inactive; negative”.
Regarding `CS(=O)(=O)Nc1ccc([N+](=O)[O-])cc1Oc1ccccc1`, under “End Point: IN VIVO CHROMOSOMAL ABERRATIONS, Test System: BONE MARROW CELLS, Species: MOUSE, Strain/Sex: SWISS/MALE, FEMALE, Route: GAVAGE (TEST MATERIAL SOLVENT: WATER)”, the mutagenic call was “active; positive (structural changes)”.
